The target of data set [1] is Tyrosine-protein kinase Fyn (Homo sapiens, UniProt P06241). In words: biochemical. The class given is cell-based, Insect cells. Conditions: insect cells.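 Further: enzymatic inhibition of Fyn kinase activity measured with Poly(Glu:Tyr) as the phosphorylation substrate; in other assays of this panel Not Active means under 50% inhibition at 10 µM.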
Another data set addresses T1, Cathepsin G (Homo sapiens, UniProt P08311).
T1 sequence (P08311 whole entry): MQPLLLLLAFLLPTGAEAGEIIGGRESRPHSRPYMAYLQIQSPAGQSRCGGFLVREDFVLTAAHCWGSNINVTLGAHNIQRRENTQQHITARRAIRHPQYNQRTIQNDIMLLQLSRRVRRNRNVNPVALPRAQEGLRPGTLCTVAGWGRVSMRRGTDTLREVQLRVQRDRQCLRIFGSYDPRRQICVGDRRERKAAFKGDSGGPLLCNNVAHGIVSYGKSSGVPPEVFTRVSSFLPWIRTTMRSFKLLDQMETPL
In words: biochemical. The class given is tissue-based, Neutrophil. To be noted: neutrophil.

For another data set, the target named is Cannabinoid receptor 1 (Homo sapiens, UniProt P21554). The class given is cell membranes, Chem-1, Membrane. Conditions: chem-1. Further: in other assays of this panel Not Active means under 50% inhibition at 10 µM.
Data set [2] deals with T2, Alpha-1D adrenergic receptor (Homo sapiens, UniProt P25100).
T2 sequence (P25100 whole entry): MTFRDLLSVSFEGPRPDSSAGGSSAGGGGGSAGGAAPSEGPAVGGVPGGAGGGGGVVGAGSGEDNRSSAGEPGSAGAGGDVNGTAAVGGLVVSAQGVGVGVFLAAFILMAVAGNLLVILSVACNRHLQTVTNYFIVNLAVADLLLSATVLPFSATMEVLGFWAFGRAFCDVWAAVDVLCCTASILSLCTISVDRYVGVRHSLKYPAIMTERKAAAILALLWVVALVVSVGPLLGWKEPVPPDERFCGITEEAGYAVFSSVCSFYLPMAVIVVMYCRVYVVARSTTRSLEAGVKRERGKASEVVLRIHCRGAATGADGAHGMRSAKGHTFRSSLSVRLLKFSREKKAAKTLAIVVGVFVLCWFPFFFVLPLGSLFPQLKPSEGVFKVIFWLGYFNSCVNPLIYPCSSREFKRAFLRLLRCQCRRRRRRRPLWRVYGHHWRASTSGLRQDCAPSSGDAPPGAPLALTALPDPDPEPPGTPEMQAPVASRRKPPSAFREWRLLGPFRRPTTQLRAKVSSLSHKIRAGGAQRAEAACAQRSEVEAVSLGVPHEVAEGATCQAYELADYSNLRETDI
The class given is cell membranes, HEK293, Membrane. To be noted: for Ki: read-out: Ki.

Data set [3] addresses Mitogen-activated protein kinase 3 (Homo sapiens, UniProt P27361). Description: DRUGMATRIX: Protein Serine/Threonine Kinase, ERK1 enzyme inhibition (substrate: Myelin Basic Protein). Details: species or system Escherichia coli. Conditions: Not Active = under 50% inhibition at 10 µM.
The target of the next data set is T3, Cytochrome P450 1A2 (Homo sapiens, UniProt P05177). Further: in other assays of this panel Not Active means under 50% inhibition at 10 µM.
T3 sequence (P05177 whole entry): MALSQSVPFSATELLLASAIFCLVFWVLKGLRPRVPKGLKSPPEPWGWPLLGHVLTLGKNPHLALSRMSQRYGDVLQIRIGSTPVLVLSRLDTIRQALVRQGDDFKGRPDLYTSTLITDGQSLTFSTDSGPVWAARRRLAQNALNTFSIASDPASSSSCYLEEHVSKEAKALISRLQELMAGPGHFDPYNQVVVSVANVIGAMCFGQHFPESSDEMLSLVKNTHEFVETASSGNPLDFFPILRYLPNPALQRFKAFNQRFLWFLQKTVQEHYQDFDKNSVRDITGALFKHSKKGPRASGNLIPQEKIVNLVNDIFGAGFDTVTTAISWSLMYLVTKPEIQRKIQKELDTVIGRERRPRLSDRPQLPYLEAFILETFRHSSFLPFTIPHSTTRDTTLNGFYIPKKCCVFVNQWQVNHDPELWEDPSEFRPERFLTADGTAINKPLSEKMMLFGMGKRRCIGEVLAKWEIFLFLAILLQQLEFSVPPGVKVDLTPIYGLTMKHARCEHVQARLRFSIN
Conditions: bti-tn-5b1-4.

Data set [4] addresses Voltage-gated inwardly rectifying potassium channel KCNH2 (Homo sapiens, UniProt Q12809). To be noted: hek293.

The results in this text go back to ChEMBL document CHEMBL1909046, “DrugMatrix in vitro pharmacology data”.
Wherever Ki is given: in other assays of this panel Not Active means under 50% inhibition at 10 µM.

Mitogen-activated protein kinase 3, sequence (P27361 whole entry): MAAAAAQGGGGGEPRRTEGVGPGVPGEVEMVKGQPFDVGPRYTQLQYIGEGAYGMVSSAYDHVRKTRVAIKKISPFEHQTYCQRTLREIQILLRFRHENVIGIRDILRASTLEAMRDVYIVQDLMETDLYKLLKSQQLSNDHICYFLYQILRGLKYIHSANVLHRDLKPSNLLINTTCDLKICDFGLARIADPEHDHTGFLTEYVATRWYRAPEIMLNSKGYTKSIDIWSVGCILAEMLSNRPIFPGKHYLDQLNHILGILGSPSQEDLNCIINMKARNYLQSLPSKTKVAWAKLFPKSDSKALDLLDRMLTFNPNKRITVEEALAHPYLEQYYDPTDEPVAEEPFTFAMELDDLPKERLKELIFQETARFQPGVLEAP
Tyrosine-protein kinase Fyn, sequence (P06241 whole entry): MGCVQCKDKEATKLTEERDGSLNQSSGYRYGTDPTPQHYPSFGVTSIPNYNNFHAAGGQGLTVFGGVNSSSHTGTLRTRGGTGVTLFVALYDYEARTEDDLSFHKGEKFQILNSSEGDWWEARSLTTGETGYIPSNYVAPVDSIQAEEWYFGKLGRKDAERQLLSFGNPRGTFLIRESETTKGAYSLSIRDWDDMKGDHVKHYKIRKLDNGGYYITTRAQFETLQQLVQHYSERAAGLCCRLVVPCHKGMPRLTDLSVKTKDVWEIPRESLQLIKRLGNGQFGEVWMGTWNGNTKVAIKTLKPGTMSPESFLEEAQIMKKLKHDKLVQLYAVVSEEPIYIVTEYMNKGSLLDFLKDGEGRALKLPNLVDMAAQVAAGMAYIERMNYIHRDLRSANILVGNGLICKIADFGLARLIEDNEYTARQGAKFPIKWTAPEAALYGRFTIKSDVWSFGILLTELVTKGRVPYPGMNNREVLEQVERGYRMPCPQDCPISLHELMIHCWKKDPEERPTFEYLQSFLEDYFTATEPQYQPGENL
Voltage-gated inwardly rectifying potassium channel KCNH2, sequence (Q12809 whole entry): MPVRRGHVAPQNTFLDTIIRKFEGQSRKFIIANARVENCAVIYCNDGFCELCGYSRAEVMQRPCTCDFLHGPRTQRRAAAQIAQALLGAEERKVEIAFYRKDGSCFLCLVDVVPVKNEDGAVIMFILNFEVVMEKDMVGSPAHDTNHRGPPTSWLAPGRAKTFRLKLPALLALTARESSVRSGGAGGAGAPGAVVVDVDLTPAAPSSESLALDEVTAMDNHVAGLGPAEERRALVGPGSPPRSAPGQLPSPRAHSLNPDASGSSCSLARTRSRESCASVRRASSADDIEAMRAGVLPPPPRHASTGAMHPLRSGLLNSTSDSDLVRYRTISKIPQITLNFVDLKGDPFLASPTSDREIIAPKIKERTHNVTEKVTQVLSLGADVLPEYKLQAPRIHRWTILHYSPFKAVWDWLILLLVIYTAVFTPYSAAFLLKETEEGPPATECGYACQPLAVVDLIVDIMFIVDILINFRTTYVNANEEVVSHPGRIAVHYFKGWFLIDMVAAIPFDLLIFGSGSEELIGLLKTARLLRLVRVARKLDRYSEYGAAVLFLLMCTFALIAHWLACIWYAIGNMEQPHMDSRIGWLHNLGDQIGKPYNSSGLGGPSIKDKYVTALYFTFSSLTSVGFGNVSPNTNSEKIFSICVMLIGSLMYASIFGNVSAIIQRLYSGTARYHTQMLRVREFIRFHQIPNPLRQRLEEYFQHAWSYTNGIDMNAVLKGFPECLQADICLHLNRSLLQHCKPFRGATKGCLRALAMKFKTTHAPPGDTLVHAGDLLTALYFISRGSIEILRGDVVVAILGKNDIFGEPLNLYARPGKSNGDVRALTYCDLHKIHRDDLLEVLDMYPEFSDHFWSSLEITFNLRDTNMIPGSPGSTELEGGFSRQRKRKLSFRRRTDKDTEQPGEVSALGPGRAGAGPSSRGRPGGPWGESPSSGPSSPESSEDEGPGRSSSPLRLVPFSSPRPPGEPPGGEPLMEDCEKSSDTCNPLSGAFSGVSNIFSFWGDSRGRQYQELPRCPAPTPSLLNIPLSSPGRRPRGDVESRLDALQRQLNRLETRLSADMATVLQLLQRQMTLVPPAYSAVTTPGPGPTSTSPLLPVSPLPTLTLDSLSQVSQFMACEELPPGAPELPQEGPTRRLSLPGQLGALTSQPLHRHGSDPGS
Cannabinoid receptor 1, sequence (P21554 whole entry): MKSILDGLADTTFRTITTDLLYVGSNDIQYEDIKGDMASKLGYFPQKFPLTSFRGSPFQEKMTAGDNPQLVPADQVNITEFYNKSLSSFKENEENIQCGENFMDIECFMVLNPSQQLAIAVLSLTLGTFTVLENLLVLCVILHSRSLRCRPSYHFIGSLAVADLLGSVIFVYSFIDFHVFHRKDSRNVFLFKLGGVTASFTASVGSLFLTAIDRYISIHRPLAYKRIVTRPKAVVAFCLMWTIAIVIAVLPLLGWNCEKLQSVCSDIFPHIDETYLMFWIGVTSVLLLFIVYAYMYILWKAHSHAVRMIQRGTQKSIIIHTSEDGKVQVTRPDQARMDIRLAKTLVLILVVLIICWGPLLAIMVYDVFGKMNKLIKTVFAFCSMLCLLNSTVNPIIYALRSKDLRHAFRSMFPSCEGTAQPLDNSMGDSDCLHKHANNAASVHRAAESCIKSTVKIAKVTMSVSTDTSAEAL

As usually defined, the IC50 is the point on the concentration scale where inhibition reaches its midpoint. In general, Ki refers to a measure of affinity in units of concentration, obtained from inhibition or displacement. For the compound `CNC[C@H](O)c1ccc(O)c(O)c1` [EPINEPHRINE], the IC50 result in data set [1] is “Not Active”; against Cathepsin G, “Not Active”; at Cannabinoid receptor 1, “Not Active”; in data set [2] (read-out: IC50), 449 nM; in data set [3] it was “Not Active”; against Cytochrome P450 1A2 it was “Not Active”. Also, the IC50 result in data set [4] is “Not Active”. For the same compound, the figures for the Ki (in data set [2]; on Cytochrome P450 1A2; in data set [4]) were 221 nM, “Not Active” and “Not Active”, respectively.

As for `CC12CCC(CC1)C(C)(C)O2` [EUCALYPTOL], the IC50 entry (in data set [1]; against Cathepsin G; against Cannabinoid receptor 1; in data set [2] (hek293); in data set [3]; at Cytochrome P450 1A2) was “Not Active” in each case. The IC50 result in data set [4] was “Not Active”. Moreover, the Ki entry (on Cytochrome P450 1A2; in data set [4]) was “Not Active” throughout.

Take `COC(=O)Nc1nc2ccc(Sc3ccccc3)cc2[nH]1` [FENBENDAZOLE]: the IC50 result (in data set [1]; on Cathepsin G; against Cannabinoid receptor 1; in data set [2] (hek293); in data set [3]; on Cytochrome P450 1A2) was “Not Active” throughout. Also, the IC50 result in data set [4] was “Not Active”. For the same compound, the Ki result (at Cytochrome P450 1A2; in data set [4]) was “Not Active” each time.

In the case of `COc1cc(/C=C/C(=O)O)ccc1O` [FERULATE], the IC50 entry (in data set [1]; at Cathepsin G; on Cannabinoid receptor 1; in data set [2] (hek293); in data set [3]; against Cytochrome P450 1A2) was “Not Active” each time. Moreover, the IC50 entry in data set [4] was “Not Active”. In addition, the Ki result (on Cytochrome P450 1A2; in data set [4]) was “Not Active” each time.

As for `Nc1nc(F)nc2c1ncn2[C@@H]1O[C@H](CO)[C@@H](O)[C@@H]1O` [FLUDARABINE], the IC50 entry (in data set [1]; on Cathepsin G; against Cannabinoid receptor 1; in data set [2] (hek293); in data set [3]; on Cytochrome P450 1A2) was “Not Active” in each case. Further, in data set [4], the IC50 result was “Not Active”. Also, the Ki entry (on Cytochrome P450 1A2; in data set [4]) was “Not Active” throughout.

As to `C[C@H](C(=O)O)c1ccc2oc(-c3ccc(F)cc3)nc2c1` [FLUNOXAPROFEN], the IC50 result (in data set [1]; on Cathepsin G; at Cannabinoid receptor 1; in data set [2] (hek293); in data set [3]; against Cytochrome P450 1A2) was “Not Active” in each case. Also, the IC50 result in data set [4] was “Not Active”. Moreover, the Ki result (on Cytochrome P450 1A2; in data set [4]) was “Not Active” in each case.

As for `O=C(O)CO` [GLYCOLIC ACID], the concentration for half-maximal inhibition (IC50) result (in data set [1]; at Cathepsin G; at Cannabinoid receptor 1; in data set [2] (hek293); in data set [3]; on Cytochrome P450 1A2) was “Not Active” in each case. For the same compound, the IC50 result in data set [4] is recorded as “Not Active”. Besides, the Ki result (on Cytochrome P450 1A2; in data set [4]) was “Not Active” in each case.

Consider `Clc1cc(Cl)c(OCC#CI)cc1Cl` [HALOPROGIN], for which the concentration for half-maximal inhibition (IC50) result (in data set [1]; on Cathepsin G; against Cannabinoid receptor 1; in data set [2] (hek293); in data set [3]; against Cytochrome P450 1A2) was “Not Active” throughout. The IC50 result in data set [4] was “Not Active”. Besides, the Ki result (at Cytochrome P450 1A2; in data set [4]) was “Not Active” in each case.

`COC(=O)C[C@](O)(CCC(C)(C)O)C(=O)O[C@@H]1C(OC)=C[C@]23CCCN2CCc2cc4c(cc2[C@H]13)OCO4` [HARRINGTONINE]: the IC50 entry (in data set [1]; on Cathepsin G; against Cannabinoid receptor 1; in data set [2] (hek293); in data set [3]; against Cytochrome P450 1A2) was “Not Active” throughout. Further, in data set [4], the IC50 entry is recorded as “Not Active”. The inhibition constant (Ki) result (at Cytochrome P450 1A2; in data set [4]) was “Not Active” each time.

As to `CC(=O)[C@]1(O)Cc2c(O)c3c(c(O)c2[C@@H](O[C@H]2C[C@H](N)[C@H](O)[C@H](C)O2)C1)C(=O)c1ccccc1C3=O` [IDARUBICIN], the IC50 entry (in data set [1]; against Cathepsin G; against Cannabinoid receptor 1; in data set [2] (hek293); in data set [3]; against Cytochrome P450 1A2) was “Not Active” each time. Moreover, the IC50 entry in data set [4] was “Not Active”. The inhibitory constant (Ki) entry (on Cytochrome P450 1A2; in data set [4]) was “Not Active” in each case.

As to `CC(C)Cn1cnc2c(N)nc3ccccc3c21` [IMIQUIMOD], the half-inhibitory concentration (IC50) entry in data set [1] is “Not Active”; at Cathepsin G it was “Not Active”; against Cannabinoid receptor 1, “Not Active”; in data set [2] (read-out: IC50), 2620 nM; in data set [3] it was “Not Active”; against Cytochrome P450 1A2 it was “Not Active”. Also, the IC50 result in data set [4] is on record as “Not Active”. For the same compound, the inhibition constant (Ki) is 1290 nM in data set [2], “Not Active” on Cytochrome P450 1A2 and “Not Active” in data set [4].

For the compound `O=C(NCCN1CCOCC1)c1ccc(Cl)cc1` [MOCLOBEMIDE], the IC50 entry (in data set [1]; against Cathepsin G; against Cannabinoid receptor 1; in data set [2] (hek293); in data set [3]; on Cytochrome P450 1A2) was “Not Active” throughout. Moreover, the half-maximal inhibitory concentration (IC50) result in data set [4] is recorded as “Not Active”. The Ki entry (at Cytochrome P450 1A2; in data set [4]) was “Not Active” in each case.

With `C=CCN1CC[C@]23c4c5ccc(O)c4O[C@H]2/C(=N/N=C2\CC[C@@]4(O)[C@H]6Cc7ccc(O)c8c7[C@@]4(CCN6CC=C)[C@H]2O8)CC[C@@]3(O)[C@H]1C5` [NALOXONAZINE], the IC50 result (in data set [1]; on Cathepsin G; at Cannabinoid receptor 1; in data set [2] (hek293); in data set [3]; against Cytochrome P450 1A2) was “Not Active” throughout. Further, in data set [4], the IC50 result is reported as “Not Active”. For the same compound, the Ki result (on Cytochrome P450 1A2; in data set [4]) was “Not Active” each time.

For the compound `Cc1ccnc2c1NC(=O)c1cccnc1N2C1CC1` [NEVIRAPINE], the IC50 result (in data set [1]; at Cathepsin G; on Cannabinoid receptor 1; in data set [2] (hek293); in data set [3]; at Cytochrome P450 1A2) was “Not Active” throughout. Further, the IC50 result in data set [4] is “Not Active”. Also, the Ki result (at Cytochrome P450 1A2; in data set [4]) was “Not Active” each time.

For `O=C1CN(/N=C/c2ccc([N+](=O)[O-])o2)C(=O)N1` [NITROFURANTOIN], the IC50 entry (in data set [1]; on Cathepsin G; against Cannabinoid receptor 1; in data set [2] (hek293); in data set [3]; on Cytochrome P450 1A2) was “Not Active” throughout. The IC50 result in data set [4] is on record as “Not Active”. The Ki entry (on Cytochrome P450 1A2; in data set [4]) was “Not Active” in each case.

Consider `C#C[C@]1(O)CC[C@H]2[C@@H]3CCC4=CC(=O)CC[C@@H]4[C@H]3CC[C@@]21C` [NORETHINDRONE], for which the IC50 result (in data set [1]; against Cathepsin G; on Cannabinoid receptor 1; in data set [2] (hek293); in data set [3]; against Cytochrome P450 1A2) was “Not Active” each time. The IC50 result in data set [4] is reported as “Not Active”. The Ki result (on Cytochrome P450 1A2; in data set [4]) was “Not Active” each time.

As to `O=C(O)CCc1nc(-c2ccccc2)c(-c2ccccc2)o1` [OXAPROZIN], the IC50 result (in data set [1]; against Cathepsin G; at Cannabinoid receptor 1; in data set [2] (hek293); in data set [3]; against Cytochrome P450 1A2) was “Not Active” each time. The IC50 entry in data set [4] is “Not Active”. Moreover, the Ki entry (at Cytochrome P450 1A2; in data set [4]) was “Not Active” throughout.
